Data reported in ChEMBL document CHEMBL3739363, “Discovery of bisindolyl-substituted cycloalkane-anellated indoles as novel class of antibacterial agents against S. aureus and MRSA” (2016).
In brackets after ≈: the same amount, converted by molar mass.

Columns and labels:
Format in all cases: functional
Staphylococcus aureus [1] = test: Antibacterial activity against Staphylococcus aureus ATCC 25923 by two-fold serial dilution method
Staphylococcus aureus [2] = test: Antibacterial activity against methicillin-resistant Staphylococcus aureus ATCC 43300 by two-fold serial dilution method
Staphylococcus aureus [3] = test: Antibacterial activity against clinical isolate methicillin-resistant Staphylococcus aureus by two-fold serial dilution method

| Structure (SMILES) | MIC (Staphylococcus aureus [1]) | MIC (Staphylococcus aureus [2]) | MIC (Staphylococcus aureus [3]) |
| --- | --- | --- | --- |
| CC1(C)S[C@@H]2[C@H](NC(=O)[C@@H](N)c3ccccc3)C(=O)N2[C@H]1C(=O)OCOC(=O)[C@@H]1N2C(=O)C[C@H]2S(=O)(=O)C1(C)C | 0.78 µg/mL (≈ 1.31 µM) | 25 µg/mL (≈ 42 µM) | 25 µg/mL (≈ 42 µM) |
| c1ccc2c([C@@H]3CC[C@@H](c4c[nH]c5ccccc45)c4c3[nH]c3ccccc43)c[nH]c2c1 (relative stereo) | 3.12 µg/mL (≈ 7.78 µM) | 3.12 µg/mL (≈ 7.78 µM) | 6.25 µg/mL (≈ 15.6 µM) |
| c1ccc2c([C@@H]3CCC[C@@H](c4c[nH]c5ccccc45)c4c3[nH]c3ccccc43)c[nH]c2c1 (relative stereo) | 3.12 µg/mL (≈ 7.52 µM) | 6.25 µg/mL (≈ 15 µM) | 12.5 µg/mL (≈ 30.1 µM) |
| Clc1ccc2c([C@@H]3CC[C@@H](c4c[nH]c5cc(Cl)ccc45)c4c3[nH]c3cc(Cl)ccc43)c[nH]c2c1 (relative stereo) | 12.5 µg/mL (≈ 24.8 µM) | 12.5 µg/mL (≈ 24.8 µM) | 12.5 µg/mL (≈ 24.8 µM) |
| CC(=O)n1cc([C@H]2CCC[C@@H](c3c[nH]c4ccccc34)c3[nH]c4ccccc4c32)c2ccccc21 (relative stereo) | 25 µg/mL (≈ 54.6 µM) | 12.5 µg/mL (≈ 27.3 µM) | 12.5 µg/mL (≈ 27.3 µM) |
| Clc1ccc2[nH]cc([C@@H]3CC[C@@H](c4c[nH]c5ccc(Cl)cc45)c4c3[nH]c3ccc(Cl)cc43)c2c1 (relative stereo) | 3.12 µg/mL (≈ 6.19 µM) | 6.25 µg/mL (≈ 12.4 µM) | 12.5 µg/mL (≈ 24.8 µM) |
| CC(=O)n1cc([C@H]2CC[C@@H](c3cn(C(C)=O)c4ccccc34)c3c2c2ccccc2n3C(C)=O)c2ccccc21 (relative stereo) | 50 µg/mL (≈ 94.8 µM) | 50 µg/mL (≈ 94.8 µM) | 50 µg/mL (≈ 94.8 µM) |
| Clc1ccc2[nH]cc([C@@H]3CCC[C@@H](c4c[nH]c5ccc(Cl)cc45)c4c3[nH]c3ccc(Cl)cc43)c2c1 (relative stereo) | 3.12 µg/mL (≈ 6.02 µM) | 6.25 µg/mL (≈ 12 µM) | 6.25 µg/mL (≈ 12 µM) |
| Clc1ccc2c([C@@H]3CCC[C@@H](c4c[nH]c5cc(Cl)ccc45)c4c3[nH]c3cc(Cl)ccc43)c[nH]c2c1 (relative stereo) | 3.12 µg/mL (≈ 6.02 µM) | 6.25 µg/mL (≈ 12 µM) | 12.5 µg/mL (≈ 24.1 µM) |
| c1ccc2c([C@@H]3CCCC[C@@H](c4c[nH]c5ccccc45)c4c3[nH]c3ccccc43)c[nH]c2c1 (relative stereo) | 3.12 µg/mL (≈ 7.27 µM) | 6.25 µg/mL (≈ 14.5 µM) | 12.5 µg/mL (≈ 29.1 µM) |
| c1ccc2c([C@@H]3C[C@@H](c4c[nH]c5ccccc45)c4c3[nH]c3ccccc43)c[nH]c2c1 (relative stereo) | 50 µg/mL (≈ 129 µM) | 12.5 µg/mL (≈ 32.3 µM) | 12.5 µg/mL (≈ 32.3 µM) |
| BrC1[C@@H](c2c[nH]c3ccccc23)c2[nH]c3ccccc3c2[C@@H]1c1c[nH]c2ccccc12 (relative stereo) | 3.12 µg/mL (≈ 6.7 µM) | 3.12 µg/mL (≈ 6.7 µM) | 6.25 µg/mL (≈ 13.4 µM) |
| CC(=O)n1cc([C@@H]2CC[C@H](c3cn(C(C)=O)c4ccccc34)c3c2[nH]c2ccccc32)c2ccccc21 (relative stereo) | 100 µg/mL (≈ 206 µM) | 100 µg/mL (≈ 206 µM) | 100 µg/mL (≈ 206 µM) |
| CC(=O)n1cc([C@H]2CCC[C@@H](c3cn(C(=O)O)c4ccccc34)c3[nH]c4ccccc4c32)c2ccccc21 (relative stereo) | 100 µg/mL (≈ 199 µM) | 50 µg/mL (≈ 99.7 µM) | 50 µg/mL (≈ 99.7 µM) |
| ClC1[C@@H](c2c[nH]c3ccccc23)c2[nH]c3ccccc3c2[C@@H]1c1c[nH]c2ccccc12 (relative stereo) | 3.12 µg/mL (≈ 7.41 µM) | 3.12 µg/mL (≈ 7.41 µM) | 6.25 µg/mL (≈ 14.8 µM) |
| CC1(C)S[C@@H]2[C@H](NC(=O)[C@H](N)c3ccccc3)C(=O)N2[C@H]1C(=O)O [AMPICILLIN] | 1.56 µg/mL (≈ 4.46 µM) | 50 µg/mL (≈ 143 µM) | 50 µg/mL (≈ 143 µM) |
